Laboratory results: ChEMBL document CHEMBL1909046, “DrugMatrix in vitro pharmacology data”

Columns and labels:
[1] = molecular target: Voltage-gated inwardly rectifying potassium channel KCNH2 (Homo sapiens, UniProt Q12809); settings: hek293; note: in other assays of this panel Not Active means under 50% inhibition at 10 µM
[2] = DRUGMATRIX: Leukotriene, BLT (LTB4) radioligand binding (ligand: [3H]LTB4); type: cell membranes, Membrane; settings: u-937; Not Active = under 50% inhibition at 10 µM
[3] = molecular target: T1, C-C chemokine receptor type 4 (Homo sapiens, UniProt P51679); type: cell membranes, Membrane; settings: chem-1; note: in other assays of this panel Not Active means under 50% inhibition at 10 µM
T1 sequence (P51679 whole entry): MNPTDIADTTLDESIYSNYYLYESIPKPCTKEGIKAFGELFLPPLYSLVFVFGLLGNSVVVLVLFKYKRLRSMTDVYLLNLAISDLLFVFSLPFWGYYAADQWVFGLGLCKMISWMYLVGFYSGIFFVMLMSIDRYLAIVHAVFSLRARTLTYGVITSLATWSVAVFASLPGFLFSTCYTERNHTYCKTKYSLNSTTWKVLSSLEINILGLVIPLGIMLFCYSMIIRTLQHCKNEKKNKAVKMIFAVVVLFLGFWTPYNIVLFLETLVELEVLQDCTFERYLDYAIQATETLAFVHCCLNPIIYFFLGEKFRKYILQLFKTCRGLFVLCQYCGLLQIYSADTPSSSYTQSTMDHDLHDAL

[4] = DRUGMATRIX: Serotonin (5-Hydroxytryptamine) 5-HT3 radioligand binding (ligand: [3H] GR-65630); type: cell membranes, Membrane; settings: hek293; Not Active = under 50% inhibition at 10 µM
[5] = DRUGMATRIX: Calcium Channel Type L, Phenylalkylamine radioligand binding (ligand: [3H] (-)-Desmethoxyverapamil (D-888)); type: cell membranes, Rattus norvegicus, Wistar, Brain, Membrane; settings: Not Active = under 50% inhibition at 10 µM
[6] = molecular target: T2, Polyunsaturated fatty acid lipoxygenase ALOX15 (Oryctolagus cuniculus, UniProt P12530); assay: biochemical; type: tissue-based, Reticulocytes; settings: reticulocytes;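 note: inhibition of 15-lipoxygenase enzyme activity measured with linoleic acid as the substrate; in other assays of this panel Not Active means under 50% inhibition at 10 µM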
T2 sequence (P12530 whole entry): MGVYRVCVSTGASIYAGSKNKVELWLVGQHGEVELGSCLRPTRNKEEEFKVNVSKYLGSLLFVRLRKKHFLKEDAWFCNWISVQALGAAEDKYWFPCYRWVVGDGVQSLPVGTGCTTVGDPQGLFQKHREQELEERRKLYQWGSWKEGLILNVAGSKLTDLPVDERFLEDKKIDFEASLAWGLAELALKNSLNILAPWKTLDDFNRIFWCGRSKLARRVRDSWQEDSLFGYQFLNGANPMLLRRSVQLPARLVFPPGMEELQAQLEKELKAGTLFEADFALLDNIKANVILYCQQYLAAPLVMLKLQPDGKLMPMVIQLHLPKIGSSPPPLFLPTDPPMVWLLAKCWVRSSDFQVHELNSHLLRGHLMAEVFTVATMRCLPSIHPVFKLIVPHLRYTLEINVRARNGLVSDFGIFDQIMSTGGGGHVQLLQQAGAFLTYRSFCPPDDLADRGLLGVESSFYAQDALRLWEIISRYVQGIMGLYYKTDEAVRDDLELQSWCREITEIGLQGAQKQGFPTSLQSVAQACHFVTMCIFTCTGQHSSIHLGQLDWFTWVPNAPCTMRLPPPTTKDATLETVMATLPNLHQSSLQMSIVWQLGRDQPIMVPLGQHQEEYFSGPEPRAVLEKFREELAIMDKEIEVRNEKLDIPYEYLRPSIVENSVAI

Cytochrome P450 1A2 = molecular target: T3, Cytochrome P450 1A2 (Homo sapiens, UniProt P05177); settings: bti-tn-5b1-4; note: in other assays of this panel Not Active means under 50% inhibition at 10 µM
T3 sequence (P05177 whole entry): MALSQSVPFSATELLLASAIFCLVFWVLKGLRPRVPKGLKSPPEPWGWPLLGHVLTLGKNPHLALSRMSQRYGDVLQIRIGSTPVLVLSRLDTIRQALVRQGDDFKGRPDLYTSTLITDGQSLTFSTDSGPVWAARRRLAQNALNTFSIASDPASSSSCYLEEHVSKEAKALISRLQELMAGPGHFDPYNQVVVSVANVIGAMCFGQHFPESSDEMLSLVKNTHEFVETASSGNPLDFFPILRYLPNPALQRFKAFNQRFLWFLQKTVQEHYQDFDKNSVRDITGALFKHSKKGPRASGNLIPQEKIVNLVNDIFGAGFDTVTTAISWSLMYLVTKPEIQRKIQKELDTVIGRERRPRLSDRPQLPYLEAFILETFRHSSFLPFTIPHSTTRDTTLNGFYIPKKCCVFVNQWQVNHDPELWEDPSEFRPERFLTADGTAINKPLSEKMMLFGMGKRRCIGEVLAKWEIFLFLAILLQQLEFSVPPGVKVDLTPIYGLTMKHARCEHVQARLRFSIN

Sequence of Voltage-gated inwardly rectifying potassium channel KCNH2 (Q12809 whole entry): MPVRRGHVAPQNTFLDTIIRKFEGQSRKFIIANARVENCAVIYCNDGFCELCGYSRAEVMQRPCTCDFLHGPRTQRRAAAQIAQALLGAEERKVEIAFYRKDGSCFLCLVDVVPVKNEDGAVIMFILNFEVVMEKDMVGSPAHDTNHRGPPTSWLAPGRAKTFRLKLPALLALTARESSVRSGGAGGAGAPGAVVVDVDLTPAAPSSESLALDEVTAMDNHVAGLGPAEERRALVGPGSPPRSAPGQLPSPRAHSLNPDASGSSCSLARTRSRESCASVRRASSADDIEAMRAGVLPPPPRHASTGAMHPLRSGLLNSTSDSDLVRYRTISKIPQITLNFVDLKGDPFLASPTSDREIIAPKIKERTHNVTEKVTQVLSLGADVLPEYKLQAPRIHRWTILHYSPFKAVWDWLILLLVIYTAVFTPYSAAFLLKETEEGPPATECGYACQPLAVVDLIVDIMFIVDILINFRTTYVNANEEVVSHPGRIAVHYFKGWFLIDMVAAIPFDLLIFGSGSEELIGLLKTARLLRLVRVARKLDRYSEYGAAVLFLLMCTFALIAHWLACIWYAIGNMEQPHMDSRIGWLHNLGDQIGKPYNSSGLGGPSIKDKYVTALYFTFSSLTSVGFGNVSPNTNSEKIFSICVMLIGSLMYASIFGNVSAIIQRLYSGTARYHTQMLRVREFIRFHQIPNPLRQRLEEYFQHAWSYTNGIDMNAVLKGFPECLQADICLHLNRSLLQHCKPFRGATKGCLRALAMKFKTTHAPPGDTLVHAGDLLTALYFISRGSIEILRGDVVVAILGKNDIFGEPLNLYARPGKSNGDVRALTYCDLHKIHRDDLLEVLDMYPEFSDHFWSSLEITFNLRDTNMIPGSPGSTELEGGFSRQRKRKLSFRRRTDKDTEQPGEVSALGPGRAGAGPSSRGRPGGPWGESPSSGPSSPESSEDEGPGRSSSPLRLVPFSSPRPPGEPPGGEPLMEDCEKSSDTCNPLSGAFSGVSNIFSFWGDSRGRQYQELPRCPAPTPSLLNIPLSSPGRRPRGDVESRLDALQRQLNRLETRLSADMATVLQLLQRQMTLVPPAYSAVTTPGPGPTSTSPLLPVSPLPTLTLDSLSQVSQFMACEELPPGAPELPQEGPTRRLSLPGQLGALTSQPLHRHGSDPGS

MANGANESE CHLORIDE ANHYDROUS
Not Active: IC50 [1] | Ki [1] | IC50 [2] | Ki [2] | IC50 [3] | Ki [3] | IC50 [4] | Ki [4] | IC50 [5] | Ki [5] | IC50 [6] | Ki [6] | IC50 (Cytochrome P450 1A2) | Ki (Cytochrome P450 1A2)

SODIUM ORTHOVANAD
Not Active: IC50 [1] | Ki [1] | IC50 [2] | Ki [2] | IC50 [3] | Ki [3] | IC50 [4] | Ki [4] | IC50 [5] | Ki [5] | IC50 [6] | Ki [6] | IC50 (Cytochrome P450 1A2) | Ki (Cytochrome P450 1A2)
